{"source": "paper PMC9855333", "about": "“1-(Arylsulfonyl-isoindol-2-yl)piperazines as 5-HT6R Antagonists: Mechanochemical Synthesis, In Vitro Pharmacological Properties and Glioprotective Activity” (Biomolecules, 2022)", "key": {"human 5-HT7b receptor": {"target": "T1, human 5-HT7b receptor (Homo sapiens, UniProt P34969)", "T1 construct": "expressed in transfected cells", "T1 sequence (P34969 1-432 limits assumed)": "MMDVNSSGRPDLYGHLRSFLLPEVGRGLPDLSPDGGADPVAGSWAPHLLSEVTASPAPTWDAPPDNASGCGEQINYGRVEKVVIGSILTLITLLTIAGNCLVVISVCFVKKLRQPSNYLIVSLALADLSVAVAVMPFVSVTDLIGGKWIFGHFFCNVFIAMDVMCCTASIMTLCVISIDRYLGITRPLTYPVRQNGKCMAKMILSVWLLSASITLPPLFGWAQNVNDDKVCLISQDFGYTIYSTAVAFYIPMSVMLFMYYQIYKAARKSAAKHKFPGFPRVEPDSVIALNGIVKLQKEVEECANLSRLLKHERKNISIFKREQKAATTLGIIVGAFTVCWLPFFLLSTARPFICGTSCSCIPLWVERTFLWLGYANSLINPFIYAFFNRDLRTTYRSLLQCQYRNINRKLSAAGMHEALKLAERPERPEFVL", "experiment": "Radioligand binding, [3H]-5-CT displacement, HEK-293 cells", "conditions": "mean ± SEM, three independent binding experiments; read-out: Ki [nM] 5-HT7R", "method": "(§1) All experiments were performed in HEK-293 cells, which stably express the human 5-HT1A, 5-HT6, 5-HT7b, and D2L receptors, or using CHO-K1 cells expressing human serotonin 5-HT2A receptor, following the previously reported procedures. For displacement studies, the following radioligands (PerkinElmer, USA) at given concentrations were used at: 2.5 nM [^3H]-8-OH-DPAT (135.2 Ci/ mmol); 1 nM [^3H]-ketanserin (53.4 Ci/mmol); 2 nM [^3H]-LSD (83.6 Ci/mmol); 0.8 nM [^3H]-5-CT (39.2 Ci/mmol) or 2.5 nM [^3H]-raclopride (76.0 Ci/mmol) for 5-HT1A, 5-HT2A, 5-HT6, 5-HT7b and D2L receptors, respectively. All tested compounds were evaluated in triplicate at 7 concentrations (10^−10–10^−4 M). The inhibition constants (Ki) were calculated from the Cheng–Prusoff equation [25]. A detailed description is reported in the Supporting Information.\n(§2) 1. Procedure for radioligand binding assay\n(§3) All experiments were carried out according to the previously published procedures. HEK293 cells stably expressing human 5-HT1A, 5-HT6, 5-HT7b and D2L receptors (prepared with the use of Lipofectamine 2000) or CHO-K1 cells with plasmid containing the sequence coding for the human serotonin 5-HT2A receptor (Perkin Elmer) were maintained at 37 °C in a humidified atmosphere containing 5% CO2 and grown in Dulbecco’s Modified Eagle’s Medium containing 10% dialyzed fetal bovine serum and 500 μg/ml G418 sulfate. For membrane preparation, cells were cultured in 150 cm2 flasks, grown to 90% confluence, washed twice with pre-warmed to 37 °C phosphate buffered saline (PBS) and centrifuged (200 × g) in PBS containing 0.1 mM EDTA and 1 mM dithiothreitol. Prior to membrane preparation, pellets were stored at –80 °C. […]\n(§4) The process of equilibration was terminated by rapid filtration through Unifilter plates with a 96-well cell harvester and radioactivity retained on the filters was quantified on a Microbeta plate reader (PerkinElmer, USA). […] The inhibition constants (Ki) were calculated from the Cheng-Prusoff equation [4]."}, "human D2L receptor": {"target": "T2, human D2L receptor (Homo sapiens, UniProt P14416)", "T2 construct": "expressed in transfected cells", "T2 sequence (P14416 whole entry)": "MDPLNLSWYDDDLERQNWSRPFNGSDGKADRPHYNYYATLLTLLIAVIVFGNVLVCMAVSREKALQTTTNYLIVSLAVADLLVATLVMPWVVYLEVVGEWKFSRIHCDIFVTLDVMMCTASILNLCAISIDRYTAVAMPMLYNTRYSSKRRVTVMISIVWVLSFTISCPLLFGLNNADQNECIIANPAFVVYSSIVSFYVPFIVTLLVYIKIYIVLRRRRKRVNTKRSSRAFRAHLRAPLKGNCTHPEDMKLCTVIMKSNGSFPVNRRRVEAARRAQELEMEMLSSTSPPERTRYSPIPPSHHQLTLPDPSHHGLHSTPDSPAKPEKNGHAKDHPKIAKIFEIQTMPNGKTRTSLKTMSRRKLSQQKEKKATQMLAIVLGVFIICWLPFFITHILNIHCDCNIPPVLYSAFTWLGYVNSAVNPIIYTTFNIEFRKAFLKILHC", "experiment": "Radioligand binding, [3H]-raclopride displacement, HEK-293 cells", "conditions": "mean ± SEM, three independent binding experiments; read-out: Ki [nM] D2", "method": "as §1, §2, §3, §4"}, "5-HT6R [1]": {"target": "T3, 5-HT6R (Homo sapiens, UniProt P50406)", "T3 sequence (P50406 whole entry)": "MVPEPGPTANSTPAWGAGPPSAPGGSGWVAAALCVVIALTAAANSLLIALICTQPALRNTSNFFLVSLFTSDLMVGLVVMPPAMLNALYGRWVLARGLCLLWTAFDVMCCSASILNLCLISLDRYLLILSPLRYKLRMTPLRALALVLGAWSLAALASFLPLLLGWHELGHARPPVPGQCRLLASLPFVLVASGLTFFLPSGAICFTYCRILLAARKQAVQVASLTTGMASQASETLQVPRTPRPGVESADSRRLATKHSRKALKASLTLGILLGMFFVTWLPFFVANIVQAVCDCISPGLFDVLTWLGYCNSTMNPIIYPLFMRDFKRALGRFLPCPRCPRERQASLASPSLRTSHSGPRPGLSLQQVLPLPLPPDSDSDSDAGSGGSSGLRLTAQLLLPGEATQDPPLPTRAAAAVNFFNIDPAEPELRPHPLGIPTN", "experiment": "Radioligand binding, [3H]-LSD displacement, HEK-293 cells", "set-up": "expressed in transfected cells", "conditions": "three independent binding experiments", "method": "as §1\nAll synthesized compounds were evaluated in ^3[H]-LSD competition binding experiments for their affinity for 5-HT6R expressed in HEK-293 cells (Table 1). Embedding the sulfonamide moiety into an unsubstituted isoindoline scaffold was sufficient to provide potent compounds 3a and 3e. […] This effect might result from the favorable localization of the bromine atom at the isoindoline fragment, which enabled compound 3k to adopt an optimal position in the receptor binding pocket via the formation of hydrophobic/steric interactions.\nas §2\nas §3, with “°C. Cell pellets were thawed and homogenized in 10 volumes of assay buffer using an Ultra Turrax tissue homogenizer and centrifuged twice at 35,000 × g for 15 min at 4 °C, with incubation for 15 min at 37 °C between the centrifugations. The composition of the assay buffers was experimentally selected to achieve the” for “°C.”\n5-HT1AR: 50 mM Tris HCl, 0.1 mM EDTA, 4 mM MgCl2, 10 μM pargyline and 0.1% ascorbate; 5-HT2AR: 50 mM Tris HCl, 0.1 mM EDTA, 4 mM MgCl2 and 0.1% ascorbate;\n5-HT6R: 50 mM Tris HCl, 0.5 mM EDTA and 4 mM MgCl2; 5-HT7bR: 50 mM Tris HCl, 4 mM MgCl2, 10 μM pargyline and 0.1% ascorbate; D2LR: 50 mM Tris HCl, 1 mM EDTA, 4 mM MgCl2, 120 mM NaCl, 5 mM KCl, 1.5 mM CaCl2 and 0.1% ascorbate).\nAll assays were carried out in a total volume of 200 μL in 96-well plates for 1 h at 37 °C, except 5-HT1AR and 5-HT2AR which were incubated at room temperature and 27 °C, respectively.\nThe process of equilibration was terminated by rapid filtration through Unifilter plates with a 96-well cell harvester and radioactivity retained on the filters was quantified on a Microbeta plate reader (PerkinElmer, USA). For displacement studies the assay samples contained as radioligands (PerkinElmer, USA): 2.5 nM [3H]-8-OH-DPAT (135.2 Ci/ mmol) for 5-HT1AR; 1 nM [3H]-ketanserin (53.4 Ci/mmol) for 5-HT2AR; 2 nM [3H]-LSD (83.6 Ci/mmol) for 5-HT6R; 0.8 nM [3H]-5-CT (39.2 Ci/mmol) for 5-HT7R or 2.5 nM [3H]-raclopride (76.0 Ci/mmol) for D2LR. Non-specific binding was defined in the presence of 10 μM of 5-HT in 5-HT1AR and 5-HT7R binding experiments, 20 μM of mianserin for 5-HT2AR, 10 μM of methiothepine for 5-HT6R or 10 μM of haloperidol for D2LR bidning assays. Each compound was tested in triplicate at 7 concentrations (10-10–10-4 M). The inhibition constants (Ki) were calculated […]"}, "5-HT6R [2]": {"target": "T3, 5-HT6R", "experiment": "Inhibition of 5-CT-induced cAMP production in 1321N1 cells (LANCE TR-FRET)", "assay_type": "cell-based", "set-up": "host or cells: 1321N1 (frozen recombinant cells)", "conditions": "5-CT as agonist, mean ± SEM, three independent experiments"}, "[3]": {"conditions": "Table 1, HEK293 cells, read-out: Ki [nM] ± SEM at the 5-HT6R"}, "[4]": {"conditions": "Table 2, mean ± SEM, read-out: 5-HT6R Ki"}}, "note": "“And” between values parts separate entries of the source, which are not always exact repeats. Equal entries are not always repeated. Where two headings read alike, the source gives them in different places."}
{"smiles": "O=S(=O)(c1cccc(N2CCNCC2)c1)N1Cc2ccccc2C1", "note": "[3e, 2-{[3-(Piperazin-1-yl)phenyl]sulfonyl}isoindoline]", "values": [{"measurement": "Ki", "setting": "human 5-HT7b receptor", "value": "4530 ± 327", "unit": "nM"}, {"measurement": "Ki", "setting": "human D2L receptor", "value": "3420 ± 415", "unit": "nM"}, {"measurement": "Ki", "setting": "5-HT6R [1]; [3]", "value": "< 5", "unit": "nM"}, {"measurement": "Ki", "setting": "5-HT6R [1]; [4]", "value": "2 ± 0.2", "unit": "nM"}, {"measurement": "Kb", "setting": "5-HT6R [2]", "value": "0.7 ± 0.2", "unit": "nM"}]}
{"smiles": "O=S(=O)(c1cccc(N2CCNCC2)c1)N1Cc2cccc(Br)c2C1", "note": "[3g, 4-Bromo-2-{[3-(piperazin-1-yl)phenyl]sulfonyl}isoindoline]", "values": [{"measurement": "Ki", "setting": "human 5-HT7b receptor", "value": "8800 ± 854", "unit": "nM"}, {"measurement": "Ki", "setting": "human D2L receptor", "value": "2440 ± 324", "unit": "nM"}, {"measurement": "Ki", "setting": "5-HT6R [1]; [3]", "value": "< 5 nM and 1 nM"}, {"measurement": "Ki", "setting": "5-HT6R [1]; [4]", "value": "1 ± 0.4", "unit": "nM"}, {"measurement": "Kb", "setting": "5-HT6R [2]", "value": "1.6 ± 0.3", "unit": "nM"}]}
{"smiles": "O=S(=O)(c1cccc(N2CCNCC2)c1)N1Cc2cccc(Cl)c2C1", "note": "[3f, 4-Chloro-2-{[3-(piperazin-1-yl)phenyl]sulfonyl}isoindoline]", "values": [{"measurement": "Ki", "setting": "human 5-HT7b receptor", "value": "10700 ± 1030", "unit": "nM"}, {"measurement": "Ki", "setting": "human D2L receptor", "value": "2030 ± 299", "unit": "nM"}, {"measurement": "Ki", "setting": "5-HT6R [1]; [3]", "value": "< 5 nM and 1 nM"}, {"measurement": "Ki", "setting": "5-HT6R [1]; [4]", "value": "1 ± 0.2", "unit": "nM"}, {"measurement": "Kb", "setting": "5-HT6R [2]", "value": "3.5 ± 0.8", "unit": "nM"}]}
